IC50 data for 53 compounds are collected here from PubChem BioAssay AID504341 (Southern Research Specialized Biocontainment Screening …, 2011).

As usually defined, the IC50 is the concentration needed to halve the response being measured.

Calls of active or inactive are those of the source.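 How the source made its calls: active means compounds blocking at least half of HIV-1 envelope-driven cell fusion at some tested dose; inactive means the rest.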

The subject of this test is MAGI-CCR5/HeLa-R5-16 cell fusion, beta-gal luminescence. Nature of the test: CCR5-tropic HIV-1 entry blockers, cell-cell fusion – MAGI-CCR5/HeLa-R5-16 cells, beta-gal luminescence, 2% serum, dose response (AID 504341).
As for `O=C(O)c1ccc(C2Nc3ccc(S(=O)(=O)Nc4cc(Cl)ccc4Cl)cc3C3C=CCC32)cc1` (stereo not drawn), the IC50 was 28.4 µM. The result for `Cc1c2c(=O)n(-c3nc4ccccc4s3)nc-2cc(O)n1Cc1ccc(F)cc1` reads 20 µM. As for `CC1=C(C(=O)OC(C)C)C(c2ccc(Cl)cc2)n2c(s/c(=C\c3ccc(OCC(=O)O)cc3)c2=O)=N1` (stereo not drawn), the IC50 is 56.8 µM. In the case of `Cc1c2c(=O)n(-c3nc4ccccc4s3)nc-2cc(O)n1CCc1cccs1` it was > 100 µM (inactive); in that of `O=C(O)CCC(C(=O)O)N1C(=O)/C(=C\c2ccco2)SC1=S` (stereo not drawn), > 100 µM (inactive); in that of `CS(=O)(=O)C1=NSC2=NC(=O)/C(=C\c3cccn3-c3cccc(C(F)(F)F)c3)C(=N)N21`, 46.6 µM. In the case of `CS(=O)(=O)C1=NSC2=NC(=O)/C(=C\c3cccn3-c3ccc(F)cc3)C(=N)N21` it was 27.9 µM; in that of `CCOc1ccc(-n2cccc2/C=C2/C(=N)N3C(=NC2=O)SN=C3S(C)(=O)=O)cc1`, 39.5 µM. The result for `COc1ccc(CCn2c(O)cc3nn(-c4nc5ccccc5s4)c(=O)c-3c2C)cc1` reads > 100 µM (inactive); that for `CS(=O)(=O)C1=NSC2=NC(=O)/C(=C\c3cccn3-c3ccc(Br)cc3)C(=N)N21`, 28.5 µM; that for `COc1ccccc1Cn1c(O)cc2nn(-c3nc4ccccc4s3)c(=O)c-2c1C`, 17 µM. Regarding `O=C(O)CCCN1C(=O)/C(=C/c2ccc(-c3ccc(Cl)c(Cl)c3)o2)SC1=S`, the IC50 is 8.68 µM. The result for `O=C(O)CCCN1C(=O)/C(=C/c2cc3ccccc3o2)SC1=S` reads > 100 µM (inactive); that for `CS(=O)(=O)C1=NSC2=NC(=O)/C(=C\c3cccn3-c3cccc(Cl)c3)C(=N)N21`, 36.4 µM; that for `O=C(O)CCCN1C(=O)/C(=C\c2ccc(-c3cccc(Cl)c3)o2)SC1=S`, 28.5 µM. The result for `O=C(O)c1ccc(C[n+]2c(-c3ccc([N+](=O)[O-])cc3)csc2Nc2ccccc2)cc1` reads > 100 µM (inactive). The result for `Cc1c2c(=O)n(-c3nc4ccccc4s3)nc-2cc(O)n1Cc1ccccc1Cl` reads 45.6 µM; that for `COc1ccc(Cn2c(O)cc3nn(-c4nc5ccccc5s4)c(=O)c-3c2C)cc1`, 15.3 µM; that for `Cc1c2c(=O)n(-c3nc4ccccc4s3)nc-2cc(O)n1C1CC1`, 15.5 µM.

Consider `Cc1ccc(-n2cccc2/C=C2/C(=N)N3C(=NC2=O)SN=C3S(C)(=O)=O)cc1C`, for which the IC50 was 33.1 µM. As for `COc1cccc(C2C(C(=O)Nc3ccccc3)=C(C)N=c3sc(=Cc4ccc(OCC(=O)O)cc4)c(=O)n32)c1` (stereo not drawn), the IC50 was > 100 µM (inactive). The result for `O=C(O)c1ccc([C@@H]2Nc3ccc(S(=O)(=O)Nc4cccc5ccccc45)cc3[C@@H]3C=CC[C@@H]32)cc1` reads 23.5 µM. In the case of `CCOC(=O)C1=C(C)N=c2sc(=Cc3ccc(OCC(=O)O)cc3)c(=O)n2C1c1ccccc1` (stereo not drawn) it was 63.1 µM; in that of `CCOC(=O)C1=C(C)N=c2sc(=Cc3ccc(OCC(=O)O)cc3)c(=O)n2C1c1cc(OC)c(OC)c(OC)c1` (stereo not drawn), 75.5 µM.

As to `COc1ccccc1NS(=O)(=O)c1ccc2c(c1)C1C=CCC1C(c1ccc(C(=O)O)cc1)N2` (stereo not drawn), the IC50 was 38.7 µM. In the case of `CS(=O)(=O)C1=NSC2=NC(=O)/C(=C\c3cccn3-c3cccc(F)c3)C(=N)N21` it was 49.9 µM. In the case of `CS(=O)(=O)C1=NSC2=NC(=O)/C(=C\c3cccn3-c3ccc(Cl)cc3)C(=N)N21` it was 34.8 µM; in that of `CS(=O)(=O)C1=NSC2=NC(=O)/C(=C\c3cccn3-c3ccc(Cl)c(Cl)c3)C(=N)N21`, 35.2 µM; in that of `COc1ccc(-n2cccc2/C=C2/C(=N)N3C(=NC2=O)SN=C3S(C)(=O)=O)cc1Cl`, 46.4 µM. In the case of `CCOC(=O)C1=C(C)N=c2sc(=Cc3ccc(OCC(=O)O)cc3)c(=O)n2C1c1ccccc1OC` (stereo not drawn) it was 48.8 µM; in that of `Cc1c2c(=O)n(-c3nc4ccccc4s3)nc-2cc(O)n1Cc1cccnc1`, 3.54 µM.

As to `O=C(O)CCCN1C(=O)/C(=C\c2ccc(-c3ccc(Cl)cc3)o2)SC1=S`, the IC50 was 8.29 µM. The result for `Cc1c2c(=O)n(-c3nc4ccccc4s3)nc-2cc(O)n1CCC(C)C` reads 39 µM; that for `CCOC(=O)C1=C(C)N=c2s/c(=C\c3ccc(OCC(=O)O)cc3)c(=O)n2C1c1ccc(Cl)cc1` (stereo not drawn), 34.9 µM; that for `Cc1ccc(-n2cccc2/C=C2/C(=N)N3C(=NC2=O)SN=C3S(C)(=O)=O)cc1`, 38 µM. As to `CCOC(=O)C1=C(C)N=c2s/c(=C\c3ccc(OCC(=O)O)cc3)c(=O)n2C1c1ccc(OC)c(OCC)c1` (stereo not drawn), the IC50 was 31.3 µM. In the case of `O=C(O)CCCN1C(=O)/C(=C/c2ccc(-c3cccc(C(F)(F)F)c3)o2)SC1=S` it was 24.5 µM; in that of `CCOC(=O)C1=C(C)N=c2sc(=Cc3ccc(OCC(=O)O)cc3)c(=O)n2C1c1ccc(OC)cc1OC` (stereo not drawn), 29 µM. In the case of `CCc1ccc(-n2cccc2/C=C2/C(=N)N3C(=NC2=O)SN=C3S(C)(=O)=O)cc1`, the IC50 is 33.3 µM. `CS(=O)(=O)C1=NSC2=NC(=O)/C(=C\c3cccn3-c3cc(Cl)cc(Cl)c3)C(=N)N21`: the IC50 was 32.3 µM. In the case of `Cc1c2c(=O)n(-c3nc4ccccc4s3)nc-2cc(O)n1CCc1ccc(O)cc1` it was 5.19 µM. The result for `CCOC(=O)C1=C(C)N=c2sc(=Cc3ccc(OCC(=O)O)cc3)c(=O)n2C1c1ccc(F)cc1` (stereo not drawn) reads 39.2 µM; that for `COc1cccc(-n2cccc2/C=C2/C(=N)N3C(=NC2=O)SN=C3S(C)(=O)=O)c1`, > 100 µM (inactive). In the case of `Cc1c2c(=O)n(-c3nc4ccccc4s3)nc-2cc(O)n1Cc1ccncc1` it was 2.96 µM; in that of `O=C(O)CCCN1C(=O)/C(=C\c2ccc(-c3ccc(Br)cc3)o2)SC1=S`, 3.49 µM. Take `O=C(O)CCCN1C(=O)/C(=C\c2ccc(-c3ccc(F)cc3)o2)SC1=S`: the IC50 is > 100 µM (inactive). Turning to `COc1ccc(-c2ccc(/C=C3\SC(=S)N(CCCC(=O)O)C3=O)o2)cc1`, the IC50 is 36.6 µM. The result for `Cc1ccc(-c2ccc(/C=C3\SC(=S)N(CCCC(=O)O)C3=O)o2)cc1` reads 29.1 µM. In the case of `CCOC(=O)C1=C(c2ccccc2)N=c2s/c(=C\c3ccc(OCC(=O)O)cc3)c(=O)n2C1c1cccc(OC)c1` (stereo not drawn) it was 25.8 µM. In the case of `CCc1ccc(-c2ccc(/C=C3\SC(=S)N(CCCC(=O)O)C3=O)o2)cc1` it was 62.4 µM.

`Nc1sc2ccccc2[n+]1Cc1ccc(C(=O)O)cc1`: the IC50 is > 100 µM (inactive). As for `O=C(O)c1ccc(C[n+]2c(-c3ccccc3)csc2Nc2ccccc2)cc1`, the IC50 is > 100 µM (inactive).

For the compound `Cc1c2c(=O)n(-c3nc4ccccc4s3)nc-2cc(O)n1Cc1cccs1`, the IC50 was 34.5 µM.
